Measurements from patent publication US11266642B2, “Small molecule inhibitors of HLA-DR3 binding for treating autoimmune thyroiditis” (ICAHN SCHOOL OF MEDICINE AT MOUNT SINAI, priority 2015, dated 2022).

Molecular target: T1, HLA-DRβ1-Arg74 (Homo sapiens, UniProt P01903+P01911, A100K/A102G/A103R/A169T/F55Y/I96L/K41T/L162R/M171V/P40S/Q125H/Q178H/Q39Y/R42S/S66N/T106N/W38E/Y61H)
T1 construct: extracellular portion of the DRB1*0301 β chain fused to the coiled coil region; coiled coil region of the basic leucine zipper domain of JunB; TEV protease cutting site (internal)
Assay: In Vitro Arg74 Blocking Test (DELFIA immunoassay, APO peptide binding)
Settings: 10 μM biotinylated APO; 48 h at 37° C.; serial dilution 0.2 to 0.0125 mM; read-out: approximate IC50, inhibition of APO binding to HLA-DRβ1-Arg74
Source text: HLA-DRβ1-Arg74 protein (containing arginine at position 74 on the β chain) was produced using the baculovirus system. We designed 2 constructs for both the α and β chains of HLA-DR. The β-chain construct contained the extracellular portion of the DRB1*0301 β chain fused to the coiled coil region of the basic Leucine zipper domain of JunB, and the α chain construct contained the extracellular portion of the DR α chain fused to the coiled coil region to the basic Leucine zipper domain of Fos. A TEV protease cutting site was introduced in each chain to allow removal of the dimerization motif. The JunB and Fos dimerization motifs allowed the protein to dimerize and form the final HLA-DRβ1-Arg74 protein. […]
Test compounds were dissolved in 100% DMSO and tested for their ability to bind to the HLA-DRβ1-Arg74 pocket and block it from binding the peptide using an immunoassay we developed for this purpose, which will be referred to as the “In Vitro Arg74 Blocking Test”. […] Time-resolved fluorescence was measured using the BMG reader (BMG Labtech, Cary, N.C.). […] Percent inhibition was calculated by the following formula: 100−100×[HLA-DRβ1-Arg74-APO-small molecule/HLA-DRβ1-Arg74-APO (no small molecule)])
To gauge the potency of the small molecules we determined the percent inhibition at decreasing concentrations of test molecules. […]

T1 sequence (P01903 26-216 limits assumed, other chains not shown): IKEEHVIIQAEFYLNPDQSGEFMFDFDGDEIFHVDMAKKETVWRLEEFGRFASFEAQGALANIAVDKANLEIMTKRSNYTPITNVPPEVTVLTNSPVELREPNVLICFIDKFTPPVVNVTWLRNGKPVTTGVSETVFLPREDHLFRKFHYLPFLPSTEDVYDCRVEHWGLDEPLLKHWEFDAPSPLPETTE

IC50: ~80 µM
SMILES: COc1ccc2cc1Oc1ccc(cc1)C[C@H]1c3c(cc4c(c3Oc3cc5c(cc3OC)CCN(C)[C@@H]5C2)OCO4)CCN1C [Compound Ia, cepharanthine]
